Experimental data reported in ChEMBL document CHEMBL5606459, “ASAP - WNV NS2B-NS3 protease fluorescence single point” (2024).

Assays:
[1] = molecular target: T1, NS3 (West Nile virus) (UniProt K4FQI5); assay: (§1) Functional biochemical assay to identify treatments for viral infectious disease that targets West Nile NS2B-NS3 protease. Utilizing a direct enzyme activity measurement method, reading the fluorescence intensity is used to characterize the relative potency of inhibitors as % inhibition. Synthetic construct has been made based on West Nile virus (strain NY-99) by Centre for Medicines Discovery, University of Oxford, and the assay has been performed by Stanford University.The protocol is publicly available: dx.doi.org/10.17504/protocols.io.ewov1dy37vr2/v1; conditions: Concentration 50.0 uM, Number of replicates 1.0
T1 sequence (whole entry): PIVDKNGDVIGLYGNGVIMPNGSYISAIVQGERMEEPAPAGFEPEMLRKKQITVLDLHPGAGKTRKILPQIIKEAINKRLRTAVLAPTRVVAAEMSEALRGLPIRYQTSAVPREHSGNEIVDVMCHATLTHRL

[2] = molecular target: T1, NS3 (West Nile virus); assay: as §1, with “Weizmann Institute of Science.The” for “Stanford University.The”, “dx.doi.org/10.17504/protocols.io.q26g7yebkgwz/v3” for “dx.doi.org/10.17504/protocols.io.ewov1dy37vr2/v1”

**Q.** `O=Cc1ccc(N2CCC(C(=O)O)CC2)o1` was tested. Which inhibition [1] did it give?
**A.** 65.4%

**Q.** With `O=Cc1ccc(N2CCC(C(=O)O)CC2)cc1` as the compound, how does the inhibition [1] read?
**A.** 69.5%

**Q.** For `O=C1c2c(O)ccc([N+](=O)[O-])c2C(=O)c2c([N+](=O)[O-])ccc(O)c21`, which inhibition ([2]; Concentration 50.0 uM, Number of replicates 2.0, Standard deviation 6.952329816266579 %) is on record?
**A.** 4.86%

**Q.** And the inhibition ([2]; Concentration 100.0 uM, Number of replicates 2.0, Standard deviation 1.865400633304037 %)?
**A.** 22.8%

**Q.** How did the inhibition [1] turn out when `Cc1cc(NS(=O)(=O)c2ccc(S(=O)(=O)F)cc2)c[nH]c1=O` was run?
**A.** 14.8%

**Q.** How did the inhibition [1] turn out when `Cc1c(C=O)c2ccccn2c1C(=O)c1ccncc1` was run?
**A.** 63.6%

**Q.** Which inhibition [1] does the source give for `Cc1c(C=O)c2ccccn2c1C#N` here?
**A.** 49.8%

**Q.** For `Cc1nc(C=O)c2ccccn12`, which inhibition [1] is on record?
**A.** 33.8%

**Q.** How did the inhibition [1] turn out when `Nc1ccc2ccc(B(O)O)cc2c1` was run?
**A.** -5.6%

**Q.** With `N=C(N)NCCC[C@H](NC(=O)c1nccs1)C(=O)N[C@@H](CCCCN)C(=O)N[C@@H](C(N)=O)c1ccc(OCc2ccc(C(F)(F)F)cc2)cc1` as the compound, how does the inhibition ([2]; Concentration 50.0 uM, Number of replicates 2.0, Standard deviation 2.0262748168953313 %) read?
**A.** 80.2%

**Q.** What about the inhibition ([2]; Concentration 100.0 uM, Number of replicates 2.0, Standard deviation 12.945380917885936 %) of the same compound?
**A.** 119%

**Q.** With `O=Cc1ccc(N2CCCCCC2)cc1` as the compound, how does the inhibition [1] read?
**A.** 57%

**Q.** With `O=Cc1nc(-c2ccccc2Cl)n2ccccc12` as the compound, how does the inhibition [1] read?
**A.** 41%

**Q.** `O=Cc1ccc(N2CCCCC2)cc1` was tested. Which inhibition [1] did it give?
**A.** 36.7%

**Q.** For `CC[C@H]1CO[C@H](C)CN1c1ccc(C=O)cn1`, which inhibition [1] is on record?
**A.** 61.8%

**Q.** For `CN(C)c1ccc(C=C(C#N)C(N)=O)cc1`, which inhibition [1] is on record?
**A.** 38.2%
